How the values were obtained:
[1] = target: His-tagged recombinant human ABL1 (Homo sapiens (Human), UniProt P00519); details: read-out: c-Abl IC50; 25 µM ATP, Abltide substrate, 30° C. 30-min
Experimental: ADP-Glo assay kit was purchased from Promega. Magnesium chloride (MgCl2), bovine serum albumin (BSA), ethylene glycol-bis(β-aminoethyl ether)-N,N,N′,N′-tetraacetic acid (EGTA), tween-20, 1,4-dithiothreitol (DTT) and dimethyl sulfoxide (DMSO) were purchased from Sigma-Aldrich. HEPES buffer was purchased from Gibco. ABL1 kinase and Abltide were purchased from Signalchem.
c-Abl kinase activity was measured by Promega’s ADP-Glo ® Assay. In this assay, His-tagged recombinant human ABL1 (0.25 ng/µl) is incubated with 5 µL of compounds (0.5% DMSO), 5 µL of Abltide (0.01 µg/µl) and 5 µL of ATP (25 µM) in buffer (50 mM HEPES,7.5; 10 mM MgCl2; 1 mM EGTA; 0.05% BSA; 0.01% Tween-20; 2 mM DTT.). The assay was started by incubating the reaction mixture in a 96-well plate at 30° C. for 30-min. After the incubation, 25 µL ADP-Glo reagent was added and the reaction was incubated at room temperature for 40-min to stop the reaction and degrade residual ATP. The ADP product was then converted to ATP by adding 50 µL per well of detection reagent. Luminescence was detected after 30-min room temperature incubation with the Molecular device I3X plate reader. The IC50 values were calculated from a series of percent inhibition values determined at a range of inhibitor concentration using software routines as implemented in the GraphPad Prism 7 software and Sigma Plot 13.0.

[2] = system: IL-6 secretion in BV-2 cell; assay: IL-6 Secretion in BV-2 Cell (L18-MDP stimulated, ELISA); format: cell-based; details: BV-2 mouse microglia cells, 10 µg/ml L18-MDP, 24 hr
Experimental: IL-6 Secretion in BV-2 Cell
BV-2 mouse microglia cells were kindly provided from Dr. Bae in Korea Institute of Science and Technology (KIST). BV-2 cells were thawed and suspended in Dulbecco’s modified eagle medium (DMEM) supplemented with 10% fetal bovine serum (FBS) and 1% Penicillin/Streptomycin. Cells were seeded into 96 well plates at 2X10^4 cells/well and allowed to attach for 24 hr. On the day of the experiment, various concentration of compounds were treated, and cells were stimulated with 10 µg/ml L18-MDP. After 24 hr incubation, supernatant was collected for cytokine assay.
Absorbance at 450 nm was measured using SpectraMax I3X microplate reader (Molecular Device). Values of media-only wells were subtracted and % inhibition for each compound concentration relative to the DMSO/L18-MDP-treated controls (100%) was calculated.

[3] = target: GST-tagged recombinant human RIPK2 (Homo sapiens (Human), UniProt O43353); assay: RIP2 Kinase Assay (ADP-Glo); format: biochemical; details: 25 µM ATP, MBP substrate, 30° C. 60 minutes
Sequence of GST-tagged recombinant human RIPK2 (O43353 whole entry): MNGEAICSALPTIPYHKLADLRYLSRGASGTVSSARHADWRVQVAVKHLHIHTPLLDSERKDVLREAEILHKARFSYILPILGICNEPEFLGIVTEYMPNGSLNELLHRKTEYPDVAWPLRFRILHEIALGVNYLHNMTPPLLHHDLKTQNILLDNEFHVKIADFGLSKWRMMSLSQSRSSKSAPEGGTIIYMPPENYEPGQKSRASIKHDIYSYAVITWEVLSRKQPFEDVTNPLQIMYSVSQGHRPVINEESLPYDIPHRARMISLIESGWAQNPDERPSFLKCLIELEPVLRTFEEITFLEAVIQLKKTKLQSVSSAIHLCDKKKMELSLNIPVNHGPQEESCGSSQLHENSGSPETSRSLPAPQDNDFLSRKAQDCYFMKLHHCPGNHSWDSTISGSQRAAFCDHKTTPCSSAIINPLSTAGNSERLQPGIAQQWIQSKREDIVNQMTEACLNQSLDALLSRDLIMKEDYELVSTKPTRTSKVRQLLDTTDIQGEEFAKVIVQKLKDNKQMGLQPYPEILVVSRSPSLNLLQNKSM
Experimental: GST-tagged recombinant human RIPK2(25 ng) is incubated with 5 µL of compounds (0.5% DMSO), 5 µL of MBP (0.5 µg/µl) and 5 µL of ATP (25 µM) in buffer (40 mM Tris, 7.5; 20 mM MgCl2; 0.1 mg/ml BSA; 50 µM DTT). The assay was started by incubating the reaction mixture in a 96-well plate at 30° C. for 60 minutes. After the incubation, 25 µL ADP-Glo reagent was added, and the reaction was incubated at 30° C. for 40 minutes to stop the reaction and degrade residual ATP. The ADP product was then converted to ATP by adding 50 µL per well of detection reagent. Luminescence was detected after 30 minutes room temperature incubation with the Molecular device I3X plate reader. The IC50 values were calculated from a series of percent inhibition values determined at a range of inhibitor concentration using software routines as implemented in the GraphPad Prism 7 software or SigmaPlot 13.0.

Sequence of His-tagged recombinant human ABL1 (P00519 whole entry): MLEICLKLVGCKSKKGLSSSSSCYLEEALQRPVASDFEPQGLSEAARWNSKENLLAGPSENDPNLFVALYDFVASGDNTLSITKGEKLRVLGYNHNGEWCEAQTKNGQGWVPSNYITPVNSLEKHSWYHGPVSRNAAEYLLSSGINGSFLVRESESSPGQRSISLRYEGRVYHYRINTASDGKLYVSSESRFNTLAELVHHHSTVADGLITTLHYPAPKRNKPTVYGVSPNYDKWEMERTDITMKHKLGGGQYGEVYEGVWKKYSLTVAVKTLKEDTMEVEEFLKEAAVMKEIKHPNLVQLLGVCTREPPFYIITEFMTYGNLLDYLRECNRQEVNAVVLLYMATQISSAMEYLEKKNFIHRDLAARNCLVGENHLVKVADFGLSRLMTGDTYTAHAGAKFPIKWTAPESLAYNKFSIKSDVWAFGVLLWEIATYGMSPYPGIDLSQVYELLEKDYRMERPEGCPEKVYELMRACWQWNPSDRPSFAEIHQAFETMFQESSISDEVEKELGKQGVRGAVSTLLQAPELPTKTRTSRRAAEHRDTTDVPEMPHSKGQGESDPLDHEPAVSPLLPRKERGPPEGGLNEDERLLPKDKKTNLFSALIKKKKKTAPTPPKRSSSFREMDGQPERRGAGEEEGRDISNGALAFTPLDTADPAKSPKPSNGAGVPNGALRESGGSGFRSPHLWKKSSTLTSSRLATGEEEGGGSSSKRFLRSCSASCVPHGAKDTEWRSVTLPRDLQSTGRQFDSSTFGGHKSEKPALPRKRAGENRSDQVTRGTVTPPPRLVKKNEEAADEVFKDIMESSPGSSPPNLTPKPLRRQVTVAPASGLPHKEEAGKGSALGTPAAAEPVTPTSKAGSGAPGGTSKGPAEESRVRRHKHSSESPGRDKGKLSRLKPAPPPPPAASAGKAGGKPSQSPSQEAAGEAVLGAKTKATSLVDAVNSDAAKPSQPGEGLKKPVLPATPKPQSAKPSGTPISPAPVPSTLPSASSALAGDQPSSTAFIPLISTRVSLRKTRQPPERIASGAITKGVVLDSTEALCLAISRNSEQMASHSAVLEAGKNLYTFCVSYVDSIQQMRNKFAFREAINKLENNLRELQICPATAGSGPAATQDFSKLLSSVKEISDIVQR

| SMILES | IC50 [1] | IC50 [2] | IC50 [3] |
| --- | --- | --- | --- |
| Cc1nc2[nH]ccc2cc1-c1ccn2nc(NC(=O)[C@@H]3C[C@@H]3F)cc2c1 [Example 3, (1S,2S)-2-fluoro-N-(5-(6-methyl-1 H-pyrrolo[2,3-b]pyridin-5-yl)pyrazolo[1,5-a]pyridin-2-yl)cyclopropane-1-carboxamide] | 0.7 nM | 332 nM | 25 nM |
| O=C(Nc1cc2cc(-c3cc4cc[nH]c4nc3Cl)ccn2n1)[C@@H]1C[C@@H]1F [Example 4, (1S,2S)-N-(5-(6-chloro-1H-pyrrolo[2,3-b]pyridin-5-yl)pyrazolo[1,5-a]pyridin-2-yl)-2-fluorocyclopropane-1-carboxamide] | 1.2 nM | 351 nM | 13.9 nM |
| COc1c(-c2ccn3nc(NC(=O)[C@@H]4C[C@@H]4F)cc3c2)cnc2[nH]ccc12 [Example 6, (1S,2S)-2-fluoro-N-(5-(4-methoxy-1H-pyrrolo[2,3-b]pyridin-5-yl)pyrazolo[1,5-a]pyridin-2-yl)cyclopropane-1-carboxamide] | 9 nM | 806 nM | 168 nM |
| Cc1c(-c2ccn3nc(NC(=O)[C@@H]4C[C@@H]4F)cc3c2)cnc2[nH]ccc12 [Example 9, (1S,2S)-2-fluoro-N-(5-(4-methyl-1H-pyrrolo[2,3-b]pyridin-5-yl)pyrazolo[1,5-a]pyridin-2-yl)cyclopropane-1-carboxamide] | 3.1 nM | 101 nM | 8.77 nM |
| Nc1c(-c2ccn3nc(NC(=O)[C@@H]4C[C@@H]4F)cc3c2)cnc2[nH]ccc12 [Example 10, (1S,2S)-N-(5-(4-amino-1H-pyrrolo[2,3-b]pyridin-5-yl)pyrazolo[1,5-a]pyridin-2-yl)-2-fluorocyclopropane-1-carboxamide] | 54.2 nM | 3940 nM | 91.5 nM |
| CCc1c(-c2ccn3nc(NC(=O)[C@@H]4C[C@@H]4F)cc3c2)cnc2[nH]ccc12 [Example 13, (1S,2S)-N-(5-(4-ethyl-1H-pyrrolo[2,3-b]pyridin-5-yl)pyrazolo[1,5-a]pyridin-2-yl)-2-fluorocyclopropane-1-carboxamide] | 12.3 nM |  | 129 nM |
| CSc1c(-c2ccn3nc(NC(=O)[C@@H]4C[C@@H]4F)cc3c2)cnc2[nH]ccc12 [Example 14, (1S,2S)-2-fluoro-N-(5-(4-(methylthio)-1H-pyrrolo[2,3-b]pyridin-5-yl)pyrazolo[1,5-a]pyridin-2-yl)cyclopropane-1-carboxamide] | 12.2 nM |  | 195 nM |
| CC(C)c1c(-c2ccn3nc(NC(=O)[C@@H]4C[C@@H]4F)cc3c2)cnc2[nH]ccc12 [Example 15, (1S,2S)-2-fluoro-N-(5-(4-isopropyl-1H-pyrrolo[2,3-b]pyridin-5-yl)pyrazolo[1,5-a]pyridin-2-yl)cyclopropane-1-carboxamide] | 159 nM |  | 828 nM |
| O=C(Nc1cc2cc(-c3cnc4[nH]ccc4c3C3CC3)ccn2n1)[C@@H]1C[C@@H]1F [Example 16, (1S,2S)-N-(5-(4-cyclopropyl-1 H-pyrrolo[2,3-b]pyridin-5-yl)pyrazolo[1,5-a]pyridin-2-yl)-2-fluorocyclopropane-1-carboxamide] | 13 nM |  | 204 nM |
| N#Cc1c(-c2ccn3nc(NC(=O)[C@@H]4C[C@@H]4F)cc3c2)cnc2[nH]ccc12 [Example 17, (1S,2S)-N-(5-(4-cyano-1H-pyrrolo[2,3-b]pyridin-5-yl)pyrazolo[1,5-a]pyridin-2-yl)-2-fluorocyclopropane-1-carboxamide] | 20.2 nM |  | 70.2 nM |
| Cc1c(-c2ccn3nc(NC(=O)[C@H]4C[C@H]4F)cc3c2)cnc2[nH]ccc12 [Example 20, (1R,2R)-2-fluoro-N-(5-(4-methyl-1H-pyrrolo[2,3-b]pyridin-5-yl)pyrazolo[1,5-a]pyridin-2-yl)cyclopropane-1-carboxamide] | 3.1 nM | 65.5 nM | 8.37 nM |
| O=C(Nc1cc2cc(-c3cnc4[nH]ccc4c3Cl)ccn2n1)C1CC1 [Example 23, N-(5-(4-chloro-1H-pyrrolo[2,3-b]pyridin-5-yl)pyrazolo[1,5-a]pyridin-2-yl)cyclopropanecarboxamide] | 9.2 nM |  | 19.9 nM |
| Cc1c(-c2ccn3nc(NC(=O)[C@@H]4C[C@@H]4F)cc3c2)cnc2[nH]cc(Cl)c12 [Example 25, (1S,2S)-N-(5-(3-chloro-4-methyl-1H-pyrrolo[2,3-b]pyridin-5-yl)pyrazolo[1,5-a]pyridin-2-yl)-2-fluorocyclopropane-1-carboxamide] | 1.7 nM |  | 32.2 nM |
| O=C(Nc1cc2cc(-c3cnc4[nH]cc(Cl)c4c3Cl)ccn2n1)[C@@H]1C[C@@H]1F [Example 29, (1S,2S)-N-(5-(3,4-dichloro-1H-pyrrolo[2,3-b]pyridin-5-yl)pyrazolo[1,5-a]pyridin-2-yl)-2-fluorocyclopropane-1-carboxamide] | 4.3 nM | 177 nM | 15.4 nM |

Continued, values first:

| IC50 [1] | IC50 [2] | IC50 [3] | SMILES |
| --- | --- | --- | --- |
| 11.2 nM | 600 nM | 48.4 nM | O=C(Nc1cc2cc(-c3cnc4[nH]ccc4c3F)ccn2n1)[C@@H]1C[C@@H]1F [Example 5, (1 S,2S)-2-fluoro-N-(5-(4-fluoro-1 H-pyrrolo[2,3-b]pyridin-5-yl)pyrazolo[1,5-a]pyridin-2-yl)cyclopropane-1-carboxamide] |
| 3.6 nM | 732 nM | 24.3 nM | O=C(Nc1cc2cc(-c3cnc4[nH]cc(F)c4c3)ccn2n1)[C@@H]1C[C@@H]1F [Example 7, (1S,2S)-2-fluoro-N-(5-(3-fluoro-1 H-pyrrolo[2,3-b]pyridin-5-yl)pyrazolo[1,5-a]pyridin-2-yl)cyclopropane-1-carboxamide] |
| 4 nM | 625 nM | 84.3 nM | Cc1cc2cc(-c3ccn4nc(NC(=O)[C@@H]5C[C@@H]5F)cc4c3)cnc2[nH]1 [Example 8, (1S,2S)-2-fluoro-N-(5-(2-methyl-1H-pyrrolo[2,3-b]pyridin-5-yl)pyrazolo[1,5-a]pyridin-2-yl)cyclopropane-1-carboxamide] |
| 3.2 nM | 654 nM | 33.4 nM | O=C(Nc1cc2cc(-c3cnc4[nH]cc(Cl)c4c3)ccn2n1)[C@@H]1C[C@@H]1F [Example 11, (1S,2S)-N-(5-(3-chloro-1H-pyrrolo[2,3-b]pyridin-5-yl)pyrazolo[1,5-a]pyridin-2-yl)-2-fluorocyclopropane-1-carboxamide] |
| 2.5 nM | 687 nM | 88.6 nM | Cc1c[nH]c2ncc(-c3ccn4nc(NC(=O)[C@@H]5C[C@@H]5F)cc4c3)cc12 [Example 12, (1S,2S)-2-fluoro-N-(5-(3-methyl-1H-pyrrolo[2,3-b]pyridin-5-yl)pyrazolo[1,5-a]pyridin-2-yl)cyclopropane-1-carboxamide] |
| 3.6 nM |  | 30.5 nM | O=C(Nc1cc2cc(-c3cnc4[nH]c(Cl)cc4c3)ccn2n1)[C@@H]1C[C@@H]1F [Example 18, (1S,2S)-N-(5-(2-chloro-1H-pyrrolo[2,3-b]pyridin-5-yl)pyrazolo[1,5-a]pyridin-2-yl)-2-fluorocyclopropane-1-carboxamide] |
| 3.3 nM | 61.4 nM | 8.25 nM | Cc1c(-c2ccn3nc(NC(=O)[C@H]4C[C@@H]4F)cc3c2)cnc2[nH]ccc12 [Example 21, (1R,2S)-2-fluoro-N-(5-(4-methyl-1H-pyrrolo[2,3-b]pyridin-5-yl)pyrazolo[1,5-a]pyridin-2-yl)cyclopropane-1-carboxamide] |
| 4.2 nM | 57.1 nM | 15.9 nM | Cc1c(-c2ccn3nc(NC(=O)[C@@H]4C[C@H]4F)cc3c2)cnc2[nH]ccc12 [Example 22, (1S,2R)-2-fluoro-N-(5-(4-methyl-1H-pyrrolo[2,3-b]pyridin-5-yl)pyrazolo[1,5-a]pyridin-2-yl)cyclopropane-1-carboxamide] |
| 2.9 nM | 75.7 nM | 14.9 nM | Cc1c(-c2ccn3nc(NC(=O)[C@@H]4C[C@@H]4F)cc3c2)cnc2[nH]cc(F)c12 [Example 24, (1S,2S)-2-fluoro-N-(5-(3-fluoro-4-methyl-1H-pyrrolo[2,3-b]pyridin-5-yl)pyrazolo[1,5-a]pyridin-2-yl)cyclopropane-1-carboxamide] |
| 19.4 nM |  | 16.1 nM | O=C(Nc1cc2cc(-c3cnc4[nH]ccc4c3Cl)ccn2n1)[C@@H]1C[C@H]1F [Example 26, (1S,2R)-N-(5-(4-chloro-1H-pyrrolo[2,3-b]pyridin-5-yl)pyrazolo[1,5-a]pyridin-2-yl)-2-fluorocyclopropane-1-carboxamide] |
| 12.4 nM | 162 nM | 15.1 nM | O=C(Nc1cc2cc(-c3cnc4[nH]ccc4c3Cl)ccn2n1)[C@H]1C[C@@H]1F [Example 27, (1R,2S)-N-(5-(4-chloro-1H-pyrrolo[2,3-b]pyridin-5-yl)pyrazolo[1,5-a]pyridin-2-yl)-2-fluorocyclopropane-1-carboxamide] |
| 13.9 nM |  | 21.5 nM | O=C(Nc1cc2cc(-c3cnc4[nH]ccc4c3Cl)ccn2n1)[C@H]1C[C@H]1F [Example 28, (1R,2R)-N-(5-(4-chloro-1H-pyrrolo[2,3-b]pyridin-5-yl)pyrazolo[1,5-a]pyridin-2-yl)-2-fluorocyclopropane-1-carboxamide] |
